ChEMBL document CHEMBL5344443, “Manzamine-A Alters In Vitro Calvarial Osteoclast Function” (J Nat Prod, 2024)
Active and inactive are the calls of the source. The calls are words filed in the database; no cut-off is given here.

Legend:
Type in all cases: functional, cell-based
RAW264.7 [1] = test: Antiproliferative activity against mouse differentiated RAW 264.7 osteoclast cells assessed as reduction in cell viability incubated for 24 hrs by MTS viability assay; settings: RAW264.7, 24 h
RAW264.7 [2] = test: Downregulation of Six1 mRNA expression in mouse differentiated RAW 264.7 osteoclasts cells at 47 uM incubated for 48 hrs by qRT-PCR analysis
RAW264.7 [3] = test: Disruption of differentiated mouse RAW 264.7 osteoclast assessed as reduction in cell density at 47 uM incubated for 24 hrs by TRAP staining
RAW264.7 [4] = test: Antiproliferative activity against mouse differentiated RAW 264.7 osteoclast cells assessed as reduction in cell viability incubated for 72 hrs by MTS viability assay; settings: RAW264.7, 72 h
RAW264.7 [5] = test: Antiproliferative activity against mouse RAW 264.7 preosteoclast cells assessed as reduction in cell viability incubated for 72 hrs by MTS viability assay; settings: RAW264.7, 72 h
RAW264.7 [6] = test: Disruption of differentiated mouse RAW 264.7 osteoclast assessed as loss of osteoclast at 47 uM incubated for 48 hrs by TRAP staining
RAW264.7 [7] = test: Disruption of differentiated mouse RAW 264.7 osteoclast assessed as reduction in cell density at 47 uM incubated for 72 hrs by TRAP staining
RAW264.7 [8] = test: Induction of apoptosis in mouse differentiated RAW 264.7 osteoclast cells at 120 uM incubated for 48 hrs by Caspase 3/7 assay
RAW264.7 [9] = test: Disruption of differentiated mouse RAW 264.7 osteoclast assessed as reduction in cell density at 1.6 uM incubated for 24 hrs by TRAP staining
RAW264.7 [10] = test: Induction of apoptosis in mouse differentiated RAW 264.7 osteoclast cells at 1.6 uM incubated for 48 hrs by Caspase 3/7 assay
RAW264.7 [11] = test: Disruption of differentiated mouse RAW 264.7 osteoclast assessed as loss of osteoclast at 120 uM incubated for 48 hrs by TRAP staining
RAW264.7 [12] = test: Disruption of differentiated mouse RAW 264.7 osteoclast assessed as loss of osteoclast at 47 uM incubated for 72 hrs by TRAP staining
RAW264.7 [13] = test: Disruption of differentiated mouse RAW 264.7 osteoclast assessed as loss of osteoclast at 1.6 uM incubated for 24 hrs by TRAP staining
RAW264.7 [14] = test: Disruption of differentiated mouse RAW 264.7 osteoclast assessed as loss of osteoclast at 120 uM incubated for 24 hrs by TRAP staining
RAW264.7 [15] = test: Induction of apoptosis in mouse differentiated RAW 264.7 osteoclast cells at 120 uM incubated for 24 hrs by Caspase 3/7 assay
RAW264.7 [16] = test: Disruption of differentiated mouse RAW 264.7 osteoclast assessed as loss of osteoclast at 120 uM incubated for 72 hrs by TRAP staining
RAW264.7 [17] = test: Downregulation of Six1 mRNA expression in mouse differentiated RAW 264.7 osteoclasts cells at 47 uM incubated for 24 hrs by qRT-PCR analysis
RAW264.7 [18] = test: Downregulation of Six1 mRNA expression in mouse differentiated RAW 264.7 osteoclasts cells at 120 uM incubated for 24 hrs by qRT-PCR analysis
RAW264.7 [19] = test: Antiproliferative activity against mouse RAW 264.7 preosteoclast cells assessed as reduction in cell viability incubated for 48 hrs by MTS viability assay; settings: RAW264.7, 48 h
RAW264.7 [20] = test: Induction of apoptosis in mouse differentiated RAW 264.7 osteoclast cells at 47 uM incubated for 72 hrs by Caspase 3/7 assay
RAW264.7 [21] = test: Induction of apoptosis in mouse differentiated RAW 264.7 osteoclast cells at 120 uM incubated for 72 hrs by Caspase 3/7 assay
RAW264.7 [22] = test: Induction of apoptosis in mouse differentiated RAW 264.7 osteoclast cells at 47 uM incubated for 24 hrs by Caspase 3/7 assay
RAW264.7 [23] = test: Antiproliferative activity against mouse differentiated RAW 264.7 osteoclast cells assessed as reduction in cell viability incubated for 48 hrs by MTS viability assay; settings: RAW264.7, 48 h
RAW264.7 [24] = test: Disruption of differentiated mouse RAW 264.7 osteoclast assessed as reduction in cell density at 120 uM incubated for 24 hrs by TRAP staining
RAW264.7 [25] = test: Downregulation of Six1 mRNA expression in mouse RAW 264.7 preosteoclasts at 2.5 uM incubated for 24 hrs by qRT-PCR analysis
RAW264.7 [26] = test: Disruption of differentiated mouse RAW 264.7 osteoclast assessed as reduction in cell density at 120 uM incubated for 48 hrs by TRAP staining
RAW264.7 [27] = test: Disruption of differentiated mouse RAW 264.7 osteoclast assessed as reduction in cell density at 1.6 uM incubated for 48 hrs by TRAP staining
RAW264.7 [28] = test: Disruption of differentiated mouse RAW 264.7 osteoclast assessed as reduction in cell density at 120 uM incubated for 72 hrs by TRAP staining
RAW264.7 [29] = test: Disruption of differentiated mouse RAW 264.7 osteoclast assessed as reduction in cell density at 1.6 uM incubated for 72 hrs by TRAP staining
RAW264.7 [30] = test: Disruption of differentiated mouse RAW 264.7 osteoclast assessed as loss of osteoclast at 47 uM incubated for 24 hrs by TRAP staining
RAW264.7 [31] = test: Induction of apoptosis in mouse differentiated RAW 264.7 osteoclast cells at 1.6 uM incubated for 72 hrs by Caspase 3/7 assay
RAW264.7 [32] = test: Downregulation of Six1 mRNA expression in mouse RAW 264.7 preosteoclasts at 2.5 uM incubated for 48 hrs by qRT-PCR analysis
RAW264.7 [33] = test: Downregulation of Six1 mRNA expression in mouse differentiated RAW 264.7 osteoclasts cells at 120 uM incubated for 48 hrs by qRT-PCR analysis
RAW264.7 [34] = test: Disruption of differentiated mouse RAW 264.7 osteoclast assessed as reduction in cell density at 47 uM incubated for 48 hrs by TRAP staining
RAW264.7 [35] = test: Induction of apoptosis in mouse RAW 264.7 preosteoclast cells at 2.5 uM incubated for 24 hrs by Caspase 3/7 assay
RAW264.7 [36] = test: Antiproliferative activity against mouse RAW 264.7 preosteoclast cells assessed as reduction in cell viability incubated for 24 hrs by MTS viability assay; settings: RAW264.7, 24 h
RAW264.7 [37] = test: Induction of apoptosis in mouse RAW 264.7 preosteoclast cells at 2.5 uM incubated for 72 hrs by Caspase 3/7 assay
RAW264.7 [38] = test: Induction of apoptosis in mouse differentiated RAW 264.7 osteoclast cells at 1.6 uM incubated for 24 hrs by Caspase 3/7 assay
RAW264.7 [39] = test: Disruption of differentiated mouse RAW 264.7 osteoclast assessed as loss of osteoclast at 1.6 uM incubated for 48 hrs by TRAP staining
RAW264.7 [40] = test: Disruption of differentiated mouse RAW 264.7 osteoclast assessed as loss of osteoclast at 1.6 uM incubated for 72 hrs by TRAP staining

With `O[C@]12C=C(c3nccc4c3[nH]c3ccccc34)[C@@H]3CCN(CCCC/C=C\CC1)C[C@@]31C[C@@H]3/C=C\CCCCN3[C@H]12` [MANZAMINE A] the IC50 (RAW264.7 [1]) was 1600 nM, the Activity (RAW264.7 [2]) was “Active” and the Activity (RAW264.7 [3]) was “Active”. The IC50 (RAW264.7 [4]) was 47000 nM, the IC50 (RAW264.7 [5]) was 1900 nM and the Activity (RAW264.7 [6]) was “Active”. For the same compound, the Activity (RAW264.7 [7]) was “Active”, the Activity (RAW264.7 [8]) was “inactive” and the Activity (RAW264.7 [9]) was “inactive”. The Activity (RAW264.7 [10]) was “Active”, the Activity (RAW264.7 [11]) was “Active” and the Activity (RAW264.7 [12]) was “Active”. The Activity (RAW264.7 [13]) was “inactive”, the Activity (RAW264.7 [14]) was “Active” and the Activity (RAW264.7 [15]) was “Active”. The Activity (RAW264.7 [16]) was “Active”, the Activity (RAW264.7 [17]) was “Active” and the Activity (RAW264.7 [18]) was “Active”. The IC50 (RAW264.7 [19]) was 2200 nM, the Activity (RAW264.7 [20]) was “inactive” and the Activity (RAW264.7 [21]) was “inactive”. For the same compound, the Activity (RAW264.7 [22]) was “Active”, the IC50 (RAW264.7 [23]) was 120000 nM and the Activity (RAW264.7 [24]) was “Active”. The Activity (RAW264.7 [25]) was “Active”, the Activity (RAW264.7 [26]) was “Active” and the Activity (RAW264.7 [27]) was “Active”. For the same compound, the Activity (RAW264.7 [28]) was “Active”, the Activity (RAW264.7 [29]) was “Active” and the Activity (RAW264.7 [30]) was “Active”. For the same compound, the Activity (RAW264.7 [31]) was “inactive”, the Activity (RAW264.7 [32]) was “Active” and the Activity (RAW264.7 [33]) was “Active”. The Activity (RAW264.7 [34]) was “Active”, the Activity (RAW264.7 [35]) was “Active” and the IC50 (RAW264.7 [36]) was 2500 nM. The Activity (RAW264.7 [37]) was “inactive”, the Activity (RAW264.7 [38]) was “Active” and the Activity (RAW264.7 [39]) was “Active”. For the same compound, the Activity (RAW264.7 [40]) was “Active”.
